Columns and labels:
Assay in all cases: Test Example 1: foliar treatment, growth inhibition rate on 14th day
Assay type in all cases: in vivo
Settings in all cases: active ingredient amount 31 g/ha, 14th day after application
[1] = test system: barnyardgrass (Echinochloa crus-qalli L.)
Text: (§1) Upland field soil was put into a 1/300,000 hectare pot, and seeds of various plants were sown. When the respective plants reached predetermined leaf stage ((1) barnyardgrass (Echinochloa crus-[…].): 0.5 to 2.9 leaf stage, (2) crabgrass (Digitaria sanquinalis L.): 0.5 to 3.0 leaf stage, (3) green foxtail (Setaria viridis L.): 0.5 to 3.2 leaf stage, (4) wild oat (Avena fatua L.): 0.4 to 1.2 leaf stage, (5) italian ryegrass (Lolium multiflorum Lam.): 0.4 to 2.0 leaf stage, (6) redroot pigweed (Amaranthus retroflexus L.): cotyledon stage to 2.2 leaf stage, (7) rice (Oryza sativa L.): 0.2 to 2.7 leaf stage, (8) corn (Zea mays L.): 1.7 to 3.6 leaf stage, (9) wheat (Triticum aestivum L.): 1.3 to 2.3 leaf stage, (10) soybean (Glycine max Merr.); primary leaf stage), wettable powders or emulsifiable concentrates of the compounds of the present invention prepared in accordance with a conventional preparation method, were weighed so as to achieve the prescribed active ingredient amounts, and diluted with water in an amount corresponding to 1,000 liters per 1 hectare (containing 0.1 vol % of an agricultural spreader (surfactant WK manufactured by MARUWA BIOCHEMICAL Co., Ltd.)), and the spray solutions thus prepared were applied for foliar treatment by a small sprayer. On the 14th day after the application, the state of growth of the respective plants was visually observed, and the herbicidal effect was evaluated by a growth inhibition rate (%) of 0 (equivalent to the non-treated area) to 100 (complete kill).

[2] = test system: corn (Zea mays L.)
Text: as §1

[3] = test system: crabgrass (Digitaria sanquinalis L.)
Text: as §1

[4] = test system: green foxtail (Setaria viridis L.)
Text: as §1

[5] = test system: italian ryegrass (Lolium multiflorum Lam.)
Text: as §1

[6] = test system: redroot pigweed (Amaranthus retroflexus L.)
Text: as §1

[7] = test system: rice (Oryza sativa L.)
Text: as §1

[8] = test system: soybean (Glycine max Merr.)
Text: as §1

[9] = test system: wheat (Triticum aestivum L.)
Text: as §1

[10] = test system: wild oat (Avena fatua L.)
Text: as §1

[11] = visual, 0 = non-treated, 100 = complete kill

| Compound | Growth inhibition rate (%) Barnyardgrass [1] [%] | Growth inhibition rate (%) Corn [2] [%] | Growth inhibition rate (%) Crabgrass [3] [%] | Growth inhibition rate (%) Green foxtail [4] [%] | Growth inhibition rate (%) Italian ryegrass [5] [%] | Growth inhibition rate (%) Redroot pigweed [6] [%] | Growth inhibition rate (%) Rice [7] [%] | Growth inhibition rate (%) Soybean [8] [%] | Growth inhibition rate (%) Wheat [9] [%] | Growth inhibition rate (%) Wild oat [10] [%] | Growth inhibition rate (%) Barnyardgrass [1, 11] [%] | Growth inhibition rate (%) Corn [2, 11] [%] | Growth inhibition rate (%) Crabgrass [3, 11] [%] | Growth inhibition rate (%) Green foxtail [4, 11] [%] | Growth inhibition rate (%) Italian ryegrass [5, 11] [%] | Growth inhibition rate (%) Redroot pigweed [6, 11] [%] | Growth inhibition rate (%) Rice [7, 11] [%] | Growth inhibition rate (%) Soybean [8, 11] [%] | Growth inhibition rate (%) Wheat [9, 11] [%] | Growth inhibition rate (%) Wild oat [10, 11] [%] |
| --- | --- | --- | --- | --- | --- | --- | --- | --- | --- | --- | --- | --- | --- | --- | --- | --- | --- | --- | --- | --- |
| Cc1ccc(Oc2ncc(C(F)(F)F)cc2Cl)cc1-c1c(OC(C)OC(=O)OC(C)C)c(C)nn(C)c1=O (stereo not shown) [1-133] | 88 | 0 | 0 | 30 | 0 | 0 | 0 | 0 | 0 | 40 | – | – | – | – | – | – | – | – | – | – |
| Cc1ccc(Oc2cnc3cc(Cl)ccc3n2)cc1-c1c(OC(=S)N(C)C)c(C)nn(C)c1=O [Compound 3-67] | – | – | – | – | – | – | – | – | – | – | 100 | 50 | 95 | 100 | 99 | 0 | 40 | 0 | 99 | 100 |
| Cc1ccc(Oc2cnc3cc(Cl)ccc3n2)cc1-c1c(OC(=S)Oc2ccccc2)c(C)nn(C)c1=O [Compound 3-62] | – | – | – | – | – | – | – | – | – | – | 100 | 60 | 99 | 99 | 93 | 0 | 0 | 20 | 90 | 99 |
| Cc1ccc(Oc2cnc3cc(Cl)ccc3n2)cc1-c1c(OC(=S)Sc2ccccc2)c(C)nn(C)c1=O [Compound 3-63] | – | – | – | – | – | – | – | – | – | – | 100 | 40 | 98 | 100 | 90 | 0 | 0 | 0 | 83 | 98 |
| COC(=O)OC(C)Oc1c(C)nn(C)c(=O)c1-c1cc(Oc2ncc(C(F)(F)F)cc2Cl)c(C)cc1C (stereo not shown) [1-151] | 99 | 35 | 99 | 95 | 83 | 30 | 65 | 0 | 10 | 95 | – | – | – | – | – | – | – | – | – | – |
| Cc1ccc(Oc2cnc3cc(Cl)ccc3n2)cc1-c1c(OCC#N)c(C)nn(C)c1=O [Compound 3-78] | – | – | – | – | – | – | – | – | – | – | 99 | 0 | 93 | 98 | 10 | 0 | 0 | 0 | 0 | 40 |
| CC(=O)Oc1c(C)nn(C)c(=O)c1-c1cc(Oc2ccc(C(F)(F)F)cc2Cl)ccc1C [Compound 2-114] | 98 | 75 | 10 | 80 | 80 | 0 | 10 | 0 | 25 | 83 | – | – | – | – | – | – | – | – | – | – |
| COc1ccc(Oc2ncc(C(F)(F)F)cc2Cl)cc1-c1c(O)c(C)nn(C)c1=O [1-10] | 70 | 60 | 90 | 90 | 0 | 0 | 0 | 20 | 0 | 20 | – | – | – | – | – | – | – | – | – | – |
| CC(=O)Oc1c(C)nn(C)c(=O)c1-c1cc(Oc2ncc(C(F)(F)F)cc2Br)ccc1C [Compound 2-115] | 100 | 98 | 95 | 98 | 98 | 20 | 78 | 0 | 83 | 100 | – | – | – | – | – | – | – | – | – | – |
| CC(=O)Oc1c(C)nn(C)c(=O)c1-c1cc(Oc2nc3cc(Cl)ccc3o2)ccc1C [Compound 2-139] | 90 | 65 | 98 | 90 | 98 | 0 | 98 | 10 | 95 | 98 | – | – | – | – | – | – | – | – | – | – |
| Cc1ccc(Oc2cnc3cc(Cl)ccc3n2)cc1-c1c(OC(=O)CC2CCCCC2)c(C)nn(C)c1=O [Compound 3-80] | – | – | – | – | – | – | – | – | – | – | 100 | 25 | 95 | 99 | 93 | 0 | 0 | 25 | 90 | 99 |
| COc1ccc2nc(Oc3ccc(C)c(-c4c(OC(C)=O)c(C)nn(C)c4=O)c3)sc2c1 [Compound 2-154] | 80 | 0 | 10 | 60 | 10 | 0 | 0 | 10 | 0 | 0 | – | – | – | – | – | – | – | – | – | – |
| Cc1ccc(Oc2cnc3cc(Cl)ccc3n2)cc1-c1c(OC(=O)N(C)c2ccccc2)c(C)nn(C)c1=O [Compound 3-66] | – | – | – | – | – | – | – | – | – | – | 10 | 25 | 20 | 35 | 40 | 0 | 0 | 0 | 10 | 50 |
| CCc1nn(C)c(=O)c(-c2cc(Oc3ncc(C(F)(F)F)cc3Cl)ccc2C)c1OC(C)OC(=O)OC (stereo not shown) [1-139] | 100 | 50 | 80 | 60 | 98 | 0 | 20 | 15 | 45 | 88 | – | – | – | – | – | – | – | – | – | – |
| CC(=O)Oc1c(C)nn(C)c(=O)c1-c1cc(Oc2ncc(Cl)cc2C(F)(F)F)ccc1C [Compound 2-125] | 100 | 90 | 90 | 50 | 93 | 0 | 70 | 0 | 50 | 90 | – | – | – | – | – | – | – | – | – | – |
| Cc1ccc(Oc2cnc3cc(Cl)ccc3n2)cc1-c1c(OCc2ccccc2)c(C)nn(C)c1=O [Compound 3-41] | 100 | 20 | 95 | 99 | 99 | 20 | 10 | 0 | 99 | 98 | – | – | – | – | – | – | – | – | – | – |

From patent US10870638B2, “Pyridazinone compound or its salt, and herbicide containing it” (ISHIHARA SANGYO KAISHA, LTD., priority 2016, dated 2020)
